Earlier results in patent US8362266B2, “Method of manufacturing a ruthenium complex” (Niiki Pharma Inc., priority 2007, dated 2013).

Tested on: broad spectrum of cancer cells
Details: background statement citing Kapitza et al., J. Cancer Res. Clin. Oncol. 131(2):101-10 (2005)

SMILES	inducing apoptosis
[Cl][Ru-]([Cl])([Cl])[Cl].[Na+].c1ccc2[nH]ncc2c1.c1ccc2[nH]ncc2c1 [KP1339, sodium trans-[tetrachlorobis(1H-indazole)ruthenate (III)]]	highly potent
[Cl-].[Cl-].[Cl-].[Cl-].[Ru+3].c1ccc2[nH][nH+]cc2c1.c1ccc2[nH]ncc2c1.c1ccc2[nH]ncc2c1 [KP1099, indazolium trans-[tetrachlorobis(1H-indazole)ruthenate (III)]]	highly potent
